The target of experiment [1] is T1, estrogen receptor (Homo sapiens, UniProt P03372).
T1 construct: Scatchard analysis on sectioned hypothalamic tissue and MCF7 cells using this protocol; endogenous in cells; host or cells: MCF-7 cells
T1 sequence (P03372 1-595): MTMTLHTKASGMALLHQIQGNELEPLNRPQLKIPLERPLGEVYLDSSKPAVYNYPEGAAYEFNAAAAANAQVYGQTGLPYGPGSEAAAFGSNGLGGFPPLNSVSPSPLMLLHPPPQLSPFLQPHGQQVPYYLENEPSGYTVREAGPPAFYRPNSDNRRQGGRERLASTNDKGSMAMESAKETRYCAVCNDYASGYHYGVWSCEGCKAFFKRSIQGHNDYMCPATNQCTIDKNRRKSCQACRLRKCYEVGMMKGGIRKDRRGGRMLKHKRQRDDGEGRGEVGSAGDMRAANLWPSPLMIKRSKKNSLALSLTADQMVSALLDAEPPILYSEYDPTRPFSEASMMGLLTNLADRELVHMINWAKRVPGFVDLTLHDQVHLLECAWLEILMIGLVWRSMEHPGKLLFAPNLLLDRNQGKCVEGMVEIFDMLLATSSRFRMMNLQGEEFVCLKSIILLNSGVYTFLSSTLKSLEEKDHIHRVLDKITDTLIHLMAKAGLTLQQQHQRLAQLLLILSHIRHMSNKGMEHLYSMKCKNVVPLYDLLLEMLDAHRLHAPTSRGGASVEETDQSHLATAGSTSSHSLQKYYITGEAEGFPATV
In words: Scatchard analysis of [3H]-moxestrol binding, MCF7 cells. The procedure: (§1) Nuclear receptor binding sites were identified using previously published protocols (Sohrabji et al., 1994a,b) and were standardized for this experiment using both MCF-7 cells and hypothalamic tissue. Cortical and basal forebrain cultures were maintained for 8 days in vitro. At the end of this period, cultures were incubated for 2 h at 34° C. with […] [^3 H]-moxestol (R2858; specific activity 80 Ci/mmol) in feed (phenol red free RPMI+10% gelded horse serum). The gelded horse serum had undetectable levels of estrogens, androgens, and progesterone (see tissue culture protocol), so that there were no endogenous steroids to compete with the nuclear binding of moxestrol. Control cultures were exposed to [^3 H]-moxestrol in the presence of an excess (2 mM) of unlabeled diethyl stilbestrol (DES), a synthetic estrogen. The radioligand-containing feed was then removed and the cultures washed and harvested for nuclear pellets by sucrose gradient density centrifugation at 4° C. Radioactivity was eluted from nuclear pellets with 95% ethanol (moxestrol is completely soluble in >50% ethanol) and the radioactivity counted in a liquid scintillation counter. […] Specific binding was determined as the difference between total binding and non-specific binding (in the presence of an unlabeled competing ligand) and the data expressed as femtomoles of specifically bound [^3 H] -moxestrol/mg DNA. […]

The target in experiment [2] is T2, estrogen receptor (Rattus norvegicus, UniProt P06211).
T2 sequence (P06211 1-600): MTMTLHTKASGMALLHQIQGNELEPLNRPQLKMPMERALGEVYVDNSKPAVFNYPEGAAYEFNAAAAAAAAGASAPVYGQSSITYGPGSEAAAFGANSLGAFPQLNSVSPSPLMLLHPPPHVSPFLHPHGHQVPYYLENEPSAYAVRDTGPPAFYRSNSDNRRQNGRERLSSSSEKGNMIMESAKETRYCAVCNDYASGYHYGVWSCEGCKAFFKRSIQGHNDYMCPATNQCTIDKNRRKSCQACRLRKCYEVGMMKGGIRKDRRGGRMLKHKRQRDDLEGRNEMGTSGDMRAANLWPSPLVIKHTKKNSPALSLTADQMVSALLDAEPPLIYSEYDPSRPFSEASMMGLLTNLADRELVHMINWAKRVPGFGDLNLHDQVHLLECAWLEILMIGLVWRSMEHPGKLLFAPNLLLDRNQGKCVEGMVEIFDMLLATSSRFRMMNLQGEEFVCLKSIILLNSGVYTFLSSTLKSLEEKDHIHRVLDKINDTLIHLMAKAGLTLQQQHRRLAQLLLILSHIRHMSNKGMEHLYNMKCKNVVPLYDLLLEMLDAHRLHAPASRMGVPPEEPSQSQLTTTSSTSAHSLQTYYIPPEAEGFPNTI
In words: Scatchard analysis of [3H]-moxestrol binding, P14 hypothalamus. Also on record: endogenous in cells. How it is done: as §1

The next experiment deals with p75^NGFR mRNA. In words: Northern blot analysis of p75NGFR mRNA in PC12 cells. The format is cell-based, rat. To be noted: PC12 cells, NGF treatment. The procedure: PC12 cells were cultured on collagen-coated coverslips or tissue culture dishes in phenol red-free RPMI 1640 (Gibco BRL) nutrient medium supplemented with 10% (heat-inactivated) gelded (steroid-deficient) horse serum (JRH Biological), according to a modification of standard procedures. In these experiments, fetal calf serum, which contains physiologic levels of estrogen, (32 pg/ml) was not used.
Total RNA, prepared by a modification of the Chomczynski and Sacchi method, was size-fractionated (10-20 μg/lane) on a 1.2% agarose-18% formaldehyde gel and capillary-transferred to nylon membrane (Hybond-N; Amersham). Filters were prehybridized (4-18 h) and hybridized (36-40 h) at 42° C. in 50% Formamide, 3× SSC, 0.1M Tris, 5× Denhardt's and 10% Dextran Sulfate. Probes were labeled with [α-^32 P]-dCTP by the random priming procedure (Random Priming kit, Boehringer Mannheim). trkA mRNA was identified by hybridization with pDM97, a 450 bp trkA-specific probe corresponding to the extracellular and transmembrane domains of the trkA gene [67; gift of L. F. Parada, NCI-FCRDC]. p75^NGFR was probed by hybridization with p5b, a 2 Kb probe corresponding to the extracellular domain of the p75^NGFR gene. Blots were washed first in 0.2×SSC and 0.5% SDS briefly at room temperature and then for 2 h at 60° C., with frequent changes of wash buffer. Filters were then exposed to film (Kodak X-Omat) between intensifying screens and stored at -70° C. for 1-4 days before developing.
Using a standard densitometry package (Jandel Scientific), optical density measurements were obtained from X-ray film. trkA and p75^NGFR transcript densities were normalized to an internal control to account for variation in the amount of RNA loaded.
Total RNA was analyzed by Northern blot analyses, using ^32 P-labeled cDNA probes for trkA and p75^NGFR.

A further experiment concerns estrogen receptor mRNA. In words: In situ hybridization for estrogen receptor mRNA in PC12 cells. The format is cell-based, rat. To be noted: NGF-treated (14 days, >2 weeks). From the text:
Estrogen receptor mRNA was identified using a previously described unique 48-base oligonucleotide sequence, identical to a region within the ligand-binding domain of the rat uterine estrogen receptor [51] and with less than 25% homology with the other members of the steroid receptor superfamily of DNA binding proteins. The probes were 3' end-labeled with digoxigenin-deoxyuridine-triphosphate using terminal deoxynucleotidyl transferase (BRL).
In situ hybridization histochemistry for the estrogen receptor was performed according to the procedure described in Miranda and Toran-Allerand [71]. Briefly, paraformaldehyde-fixed cultures were hybridized with digoxigenin-labeled oligonucleotide for 16-18 hours, washed extensively and later incubated with antidigoxigenin antibody conjugated to alkaline phosphatase (Boehringer Mannheim). RNA-oligonucleotide hybrids were visualized with a blue color reaction (nitroblue tetrazolium salt/5-bromo-4-chloro-3-indolyl-phosphate) catalyzed by antibody-conjugated alkaline-phosphatase. Color reaction was terminated for all groups when color appeared fully developed in one condition. Coverslips were dehydrated briefly, cleared in Histoclear (National Diagnostics) and coverslipped in Permount. […]

Experiment [3] deals with estrogen receptor. In words: Tyrosine phosphorylation of the estrogen receptor, cortical explants. The format is cell-based. The procedure: Estrogen and the neurotrophins have important roles in the developing and adult central nervous system (CNS). […] The hypothesis that estrogen/neurotrophin receptor co-expression leads to reciprocal regulation at the level of signal transduction, through cross-coupling of converging estrogen and neurotrophin signaling pathways whose end-points in the nucleus may be the very same genes was tested. Postnatal day 2 cerebral cortex was maintained as organotypic explants in roller tube culture for 7 days.

A further experiment relates to PC12-E2 cells. In words: Morphological study of neurite growth in PC12-E2 cells. The format is cell-based. From the text:
It has been previously reported that wild-type, differentiated PC12 pheochromocytoma cells express very low levels of estrogen receptors. Here it is reported that a PC12 cell variant, PC12-E2 (Wu, Bradshaw, J. Cell Physiol. 164:1995), is estrogen responsive and expresses high estrogen receptor level (≈50% of the levels observed in estrogen receptor over-expressing MCF-7 cells). Moreover, although tyrosine phosphorylation of the estrogen receptor appeared to be expressed constitutively, these cells responded to added estrogen. PC12-E2 responsiveness to estrogen was determined morphologically and by measuring estradiol-induced ERK activation. […] Preliminary co-precipitation experiments show an association between src and estrogen receptor, src with MEK (MAP Kinase/ERK-activating Kinase), and MEK with B-raf, MEK, which phosphorylates the ERKs on tyrosine residues, is known to exist as a complex consisting of at least hsp90 and B-raf.

In experiment [4] the target is T2, estrogen receptor. In words: Nuclear exchange assay: specific nuclear estrogen binding in PC12 cells. The format is cell-based. More on the design: endogenous in cells. To be noted: for Nuclear estrogen binding after 4 days of NGF treatment: 4 days NGF. The procedure: In these experiments, fetal calf serum, which contains physiologic levels of estrogen, (32 pg/ml) was not used.
Estrogen binding was estimated by a modification of the nuclear exchange assay. […] Groups receiving estrogen were deprived of the steroid 24 h prior to the assay. […] Tubes were then centrifuged briefly (5 mins, 14000 g) to recover a pellet and washed (3×) in the same buffer, excluding Triton X. Since the estrogen receptor is a nuclear receptor, in some experiments a sucrose gradient protocol was employed to ensure a clean nuclear pellet. […] This mixture was then carefully layered over a buffer containing 1.8 M sucrose and centrifuged for 90 mins, at 15,000 g at 4° C., and the nuclear pellet recovered from the bottom of the tube. […] Specific binding was determined as the difference between total binding and non-specific binding (in the presence of an unlabeled competing ligand). […] Group differences were evaluated using one way analysis of variance with Student-Newman-Keuls test of planned post-hoc comparisons. Differences were considered significant at the 0.05 level.
A modification of the nuclear exchange assay was used to determine the presence of estrogen binding sites in nuclear pellets of PC12 cells.

Experiment [5] concerns the target T2, estrogen receptor. Also on record: endogenous in cells. To be noted: NGF-sensitive PC12 cells (Sohrabji et al., 1994a); cited from earlier work.
The mark [6] stands for this setting: read-out: Dissociation constant (Kd).

The values below come from patent US5990078A, “Means of increasing estrogen receptor levels in neural tissue” (The Trustees of Columbia University in the City of New York, priority 1996, dated 1999).

The Kd is the constant that tells how readily two partners part at equilibrium.

“Also recorded” adds a separate entry of the source. A value given as a limit tells only on which side of the number the result lay.

In the case of `C#C[C@]1(O)CC[C@H]2[C@@H]3CCc4cc(O)ccc4[C@H]3[C@@H](OC)C[C@@]21C` [[^3 H]-moxestrol, 11β-methoxy-[^3 H]-moxestrol], the “Maximal binding (Bmas)” value on estrogen receptor [1] is given as 1800-2500 fmol/mg DNA; at estrogen receptor [2], 310 fmol/mg DNA. Also, the dissociation constant (Kd) is 0.7 to 0.78 nM at estrogen receptor [1] (setting [6]) and 0.86 nM on estrogen receptor [2] (setting [6]).
With “NGF: nerve growth factor, member of the neurotrophin family of growth factors”, the “p75NGFR mRNA vs untreated controls” value in the experiment with p75^NGFR mRNA is “increase”. In addition, the “Hybridization to estrogen receptor probe” value in the experiment with estrogen receptor mRNA is “strongly hybridize”. Moreover, the “Tyrosine phosphorylation of the estrogen receptor” value (from here on “Tyrosine phosphorylation”) with estrogen receptor [3] was “induced tyrosine phosphorylation”. Moreover, in the experiment with PC12-E2 cells, the Neurite outgrowth result is “extensive and rapid”; the “Time to induction of neurite outgrowth” value was at most 24 h. Besides, in the experiment with estrogen receptor [4] (NGF for 3 weeks (21 days)), the “Increase in specific nuclear estrogen binding vs naive (untreated) cells” value is recorded as “sixfold”. The “Nuclear estrogen binding after 1 day of NGF exposure” value with estrogen receptor [4] (time course, 1 day NGF) was “No increase was observed”. In addition, the “Nuclear estrogen binding after 4 days of NGF treatment” value in the experiment with estrogen receptor [4] (time course) is recorded as “noticeable elevation; also recorded: increase in estrogen binding is present as early as 4 days”. Further, the “Nuclear estrogen binding after 4 days of NGF treatment” value with estrogen receptor [4] (time course, listed as nerve growth factor) was “double”. Also, in the experiment with estrogen receptor [5], the “Increase in estrogen binding sites” value is “sixfold”.
Regarding NT-3: neurotrophin-3, the “Tyrosine phosphorylation” value in the experiment with estrogen receptor [3] is recorded as “not”.

B1: BDNF: brain-derived neurotrophic factor, a neurotrophin (protein, UniProt P23560 19-247, looked up)
Neurotrophic factor BDNF …: APMKEANIRGQGGLAYPGVRTHGTLESVNGPKAGSRGLTSLADTFEHVIEELLDEDQKVRPNEENNKDADLYTSRVMLSSQVPLEPPLLFLLEEYKNYLDAANMSMRVRRHSDPARRGELSVCDSISEWVTAADKKTAVDMSGGTVTVLEKVPVSKGQLKQYFYETKCNPMGYTKEGCRGIDKRHWNSQCRTTQSYVRALTMDSKKRIGWRFIRIDTSCVCTLTIKRGR
Consider B1, for which the “Tyrosine phosphorylation” value with estrogen receptor [3] is “induced tyrosine phosphorylation”.

B2: NT-4/5: neurotrophin-4/5 (protein, UniProt P34130 81-210, looked up)
Neurotrophin-4: GVSETAPASRRGELAVCDAVSGWVTDRRTAVDLRGREVEVLGEVPAAGGSPLRQYFFETRCKADNAEEGGPGAGGGGCRGVDRRHWVSECKAKQSYVRALTADAQGRVGWRWIRIDTACVCTLLSRTGRA
For the molecule B2, in the experiment on estrogen receptor [3], the “Tyrosine phosphorylation” value is on record as “induced tyrosine phosphorylation”.
